Broadly, the Km is the concentration of substrate that gives half-maximal velocity.

This assay relates to T1, LipSm.
T1 construct: mature form (371 residues, signal peptide cleaved in E. coli BL21(DE3) after LAA), C-terminal 8 extra residues incl; ORF 400 residues
The experiment in a line: initial velocities, 4-nitrophenol release at […] nm. The note with it: 100 mM Tris-HCl pH 8.0, 1% w/v Triton X-100, 5% v/v DMSO, 40 °C. The class given is biochemical, Stenotrophomonas maltophilia.

Take `CC(=O)Oc1ccc([N+](=O)[O-])cc1` [Ac-4-NPh, 4-nitrophenyl acetate]: under “850 nM enzyme”, the Km was 473 µM.

With `CCCC(=O)Oc1ccc([N+](=O)[O-])cc1` [Bu-4-NPh, 4-nitrophenyl butyrate], under “850 nM enzyme, limited substrate solubility”, the Km is 1930 µM.

Turning to `CCCCCCCCCCCC(=O)Oc1ccc([N+](=O)[O-])cc1` [La-4-NPh, 4-nitrophenyl laurate], the Km (2200 nM enzyme, limited substrate solubility) came to 349 µM.

The record behind these values is publication PMC5806266, “Molecular, biochemical and kinetic analysis of a novel, thermostable lipase (LipSm) from Stenotrophomonas maltophilia Psi-1, the first member of a new bacterial lipase family (XVIII)” (Journal of Biological Research, 2018).
